Data reported in PMC12866179, “Oxidized MIF is an Alzheimer’s disease drug target relaying external risk factors to tau pathology” (Cell Reports Medicine, 2025).

Columns and labels:
wt-MIF and MIF-C80W = test: SEC-HPLC-MALS of MIF with or without compound; design: species or system human; settings: 100 μM MIF, 100 μM PAV-174
Description: The samples for SEC-HPLC-MALS were 100 μM of MIF (WT or mutant C80W) in 20 mM phosphate buffer, with or without compound PAV-174 (100 μM).
The HPLC-MALS was performed at 0.5 mL/min and 25°C with an Agilent 1200 series HPLC system and a size exclusion column TSKgel G2000SWXL from Tosoh bioscience. The detection was performed recording the UV absorbance at 280 nm with the HPLC detector and the light scattering with a miniDawn Treos spectrometer from Wyatt. The molecular weight of the detected species is calculated using the extinction coefficients at 280 nm (12950 M^−1 cm^−1 for WT and 18450 M^−1 cm^−1 for C80W), absorbance at 280 nm and the Rayleigh ratio using the built-in function in Astra software.

[1] = tested on: tau phosphorylation and aggregation; test: Treatment of tgTau58/2 mice, tau phosphorylation and sarkosyl-insoluble tau in brain; type: in vivo; settings: tau58/2 mice
Text: TgTau58/2 mice[44] that express the human 0N4R tau isoform with the P301Smutation under control of the mouse Thy1.2 promoter were a kind gift from Novartis (Boston, USA). Experimental animals were two months old, male, and heterozygous for the transgene. Wildtype littermates on C57BL/6J background served as control. The mice were maintained in pathogen-free conditions in the Animal Facility at the University of Düsseldorf, Germany, fed ad libitum with standard laboratory chow and water in ventilated cages under a 12h light/dark cycle. All experiments were in conformity with the Animal Protection Law approved by local authorities (LANUV NRW, Recklinghausen, Germany).
TgTau58/2 mice[44] were a kind gift from Novartis (Boston, USA). Two months-old males, heterozygous for the tau-P301S transgene (n = 12 per group), were either treated with 10% DMSO or 5 mg/kg body weight compound PAV-617 for four weeks administering 100 μL volumes intraperitoneally three times a week, after which animals were perfused with PBS and terminated. The brains were extracted cut into two-halves and flash frozen in liquid N2. One brain halve was homogenized in cold extraction buffer (10 mM Tris pH7.4, 1mM EGTA, 0.8M NaCl, 10% sucrose, 1x Protease inhibitor cocktail, 1x phosphatase inhibitor cocktail 2) to 10%. For screening 1% NP40, 0.1mg/mL DNAseI and 5 mM MgSO4 were added to the homogenates and after 30 min incubation on ice the protein concentration was determined using the DC Protein Assay Kit (Bio-Rad). Equal amounts of protein were then either directly used for detection of tau in the whole homogenate by immunoblot or sarkosyl insoluble tau was precipitated following a protocol of.[93] 750 μg lysate were centrifuged at 6,000g for 20 min at 4°C. Then the supernatant was carefully taken and sarkosyl was added to 1% end concentration. After an incubation for 1h at RT the samples were spun down at 100,000g for 1h at 4°C. The supernatants were removed and the pellets carefully washed with 200 μL extraction buffer without sucrose. […]

[2] = molecular target: T1, D-dopachrome tautomerase (D-DT) (Homo sapiens, UniProt P30046); test: Drug resin affinity chromatography (DRAC), D-DT; type: binding; settings: SH-SY5Y-tau-P301S lysates
T1 construct: Lysates derived from SH-SY5Y-tau-P301S control; endogenous in cells; host or cells: SH-SY5Y-tau-P301S control and MIF-ko cell lysates
Description: For drug resin affinity chromatography (DRAC), supernatant of cell lysates or brain extracts were supplemented with 1 mM of ribonucleoside triphosphates (ATP, GTP, CTP, UTP; NEB), 10 mM creatine phosphate (Sigma) and 10 μL/mL of a 5 mg/mL stock solution of creatine kinase (Sigma). The samples were then loaded onto 20 μL of compound-coupled resin that were equilibrated with PBB-buffer (plus supplements). After one hour of incubation at 26°C, the beads were washed with PBB (100x bed volume). Bound proteins were then eluted either with 200 μM PAV-645 (pig brain) or 100 μM free compound (human brain samples; cell lysates) in the same buffer used as competitor solution or for stripping 1% SDS or 8M urea (cell lysates) for 1h. All elutions were kept frozen until further analysis.
Figure S3. PAV-17 4 reduces ta u phosphorylation al s o in the abs enc e of HSV-1-infection in a MIF and dose dependent manner. Rel a ted to Figure 3
(A) SH-SY5Y-tau-P301S cel ls could efficiently been infected with HSV-1. The cel ls we re infected with increasing MOIs (0 .0 3 to 3. 0 ) of HSV-1 an d then lysed af t er 6h , 9h , 16 h or 24 h. […]
(E) Expression of MIF wa s no t mo du late d up on infection with HSV-1. […] The di ag ram di splays the quantification of MIF normalized to GAPDH derived from three in de pe nd en t exper iments (n =3). […]

Structure (SMILES)	effect on monomer-trimer equilibrium / oligomerization of MIF (wt-MIF and MIF-C80W)	phosphorylated tau (AT8) in brain homogenates ([1]; 5 mg/kg)	phosphorylated tau (PHF-1) in the sarkosyl-insoluble fraction ([1]; 5 mg/kg)	HT7-normalized phosphorylated tau (PHF-1) in brain homogenates ([1]; 5 mg/kg i.p. three times a week for four weeks)	binding of / interaction with D-DT [2]
CCc1cc(N2CCCC2)cc2[s+]c3cc(N4CCCC4)cc(C)c3nc12.[I-] [PAV-174, 3,7-Di(pyrrolidine-1-yl) 1-ethyl-9-methyl-phenothiazin-5-ium iodide]	does not perturb the monomer-trimer equilibrium	–	–	–	–
[I-].c1cc2nc3ccc(N4CCCC4)cc3[s+]c2cc1N1CCCC1 [PAV-617, 3,7-Di(pyrrolidine-1-yl)phenothiazine-5-ium iodide]	–	reduced	Significantly less	reduced	no bi nd ing of D-DT
